According to US20240251788A1, “HERBICIDE/SAFENER COMBINATION BASED ON SAFENERS FROM THE CLASS OF SUBSTITUTED [(1,5-DIPHENYL-1H-1,2,4-TRIAZOL-3-YL)OXY]ACETIC ACIDS AND THEIR SALTS” (Bayer Aktiengesellschaft, priority 2021, published 2024):

Columns and labels:
[1] = tested on: summer wheat crop plant (TRZAS; cv. Triso); experiment: Reduction in herbicide damage to summer wheat by safener, greenhouse post-emergence application, visual scoring; format: in vivo; conditions: summer wheat (TRZAS), without safener
Description: (§1) The seeds of the crop plants to be treated are laid out in soil in woodfiber pots (diameter ˜ 7 cm), covered with soil and grown in a greenhouse under good conditions for germination and growth. The trial plants were treated at the early leaf stage (BBCH10-BBCH12).
The herbicides used (component B) were used in the following formulations: • B2.81: WP • B2.85: WP • B2.92: WP • Cinmethylin: EC • Clomazone: WP • Ethofumesate: WP • Flufenacet: SC • Pinoxaden: WP • Saflufenacil: WP • Bicyclopyrone: WP • Picloram: WP • Metazachlor: SC • Flumioxazin: WP • Glyphosate potassium salt: SL • Topramezone: WP
(§2) The dose of the respective herbicides was chosen here such that it causes an average degree of visually apparent damage (min. 20%, max. 75%) compared to untreated crop plants at the evaluation time on a control group of crop plants without safener treatment that were included in the same trial.
(§3) In the respective herbicide/safener combinations, the safeners (component A) in the form of wettable powders (WP) were added in the dose specified; in these cases, herbicide and safener are thus applied as a mixture.
(§4) Application was effected in each case on to the above-ground parts of the plant, at a water application rate corresponding to 300 l/ha and with addition of wetting agent (Mero, 1.5 l/h a).
In the applications that contained pinoxaden, bicyclopyrone or topramezone, the herbicidal effect was enhanced by additionally adding ammonium sulfate (2 kg/ha).
(§5) After application, the plants were cultivated under good growth conditions in a greenhouse. On account of the different mechanisms of action of the herbicides used, the damaging effect of the herbicides was fully manifested at different times depending on the herbicide, and this in turn forms the basis for assessment of the safener action in the mixtures. Therefore, the damage was scored visually, depending on the herbicide/mixture, between 11 and 21 days after application.
(§6) The damage effect was assessed visually on a scale of 0-100% by comparison with untreated control plants, and averaged over 2 repeats per treatment.

[2] = tested on: summer barley crop plant (HORVS: cv. Quench); experiment: Reduction in herbicide damage to summer barley by safener, greenhouse post-emergence application, visual scoring; format: in vivo; conditions: summer barley (HORVS), without safener
Description: as §1
The herbicides used (component B) were used in the following formulations: • B2.81: WP • B2.85: WP • B2.92: WP • Clomazone: WP • Ethofumesate: WP • Flufenacet: SC • Fluroxypyr: EC • Saflufenacil: WP • Thiencarbazone-methyl: WP • Iodosulfuron-methyl-sodium: WP • Bifenox: WP • Glyphosate potassium salt: SL • Topramezone: WP
as §2, §3, §4
In the applications that contained pinoxaden or topramezone, the herbicidal effect was enhanced by additionally adding ammonium sulfate (2 kg/ha).
as §5, §6

## CCOC1Oc2ccc(OS(C)(=O)=O)cc2C1(C)C (stereo not drawn) [Compound B5.21, ethofumesate, reference compound]
[1]; herbicide dose 2000 g a.i./ha
  Damage to the plant by the herbicide (in %): 70%
[2]; herbicide dose 2000 g a.i./ha
  Damage to the plant by the herbicide (in %): 60%

## O=C(O)CNCP(=O)(O)O [Compound B7.5, glyphosate, reference compound]
[1]; herbicide dose 400 g a.i./ha
  Damage to the plant by the herbicide (in %): 45%
[2]; herbicide dose 400 g a.i./ha
  Damage to the plant by the herbicide (in %): 60%

## CC(C)N(C)S(=O)(=O)NC(=O)c1cc(-n2c(=O)cc(C(F)(F)F)n(C)c2=O)c(F)cc1Cl [Compound B9.10, saflufenacil, reference compound]
[1]; herbicide dose 10 g a.i./ha
  Damage to the plant by the herbicide (in %): 35%
[1]; herbicide dose 20 g a.i./ha
  Damage to the plant by the herbicide (in %): 40%
[2]; herbicide dose 20 g a.i./ha
  Damage to the plant by the herbicide (in %): 40%

## topramezone [Compound B4.28, reference compound]
[1]; herbicide dose 300 g a.i./ha
  Damage to the plant by the herbicide (in %): 40%
[2]; herbicide dose 300 g a.i./ha
  Damage to the plant by the herbicide (in %): 50%
